Source: US7045510B2, “Methods for prevention and treatment of mastitis” (priority 2004, dated 2006)

How the values were obtained:
[1] = system: milk somatic cell concentration (SCC); experiment: Milk somatic cell concentration (SCC) after intramammary infusion at drying-off; format: in vivo, dairy cows
Experimental: (§1) Experimental Design: At dry-off all quarters of even numbered cows (n=39) were infused with antibiotics (Cefa-Dri (Fort Dodge Animal Health, Fort Dodge, Iowa 50501) containing 300 mg cephapirin […] in peanut oil) approved for use by FDA. All quarters of odd numbered cows (n=40) were infused with dextran (total dose 100 mg DEAE-dextran (Sigma Chemical Co. St. Louis, Mo.)) in 1 ml of sterile filtered distilled water and suspended in 9 ml of peanut oil (Sigma).
Mammary quarters of 4 dairy cows at drying-off were infused with either 100 mg of DEAE-dextran, peanut oil, or were uninfused. Secretions were collected at 0, 24, 48, 72, 96, and 120 hours post infusion for determination of milk somatic cell concentration.

[2] = Milk yield in the subsequent lactation after infusion at dry-off; format: in vivo, cows; settings: for Mean yearly milk yield: mean per cow of the group
Experimental: as §1

[3] = system: intramammary infections (mastitis); experiment: Intramammary infection status before dry-off and after calving, all 4 quarters infused at dry-off; format: in vivo, cows; settings: for new infections (quarters infected during the dry period) / old infections (quarters remaining infected after calving): group total after calving; for infected quarters at dry-off: baseline before infusion
Experimental: as §1

In the case of diethylaminoethyl-dextran, the “milk somatic cell count” value ([1]; 0 hour, quarters of 4 dairy cows infused with 100 mg at drying-off) is reported as 129000 mL⁻¹, the “milk somatic cell count” value ([1]; 24 hours post infusion, 100 mg per quarter at drying-off) is reported as 19,591 ×10^3/ml and the “milk somatic cell count” value ([1]; 72 hours post infusion, 100 mg per quarter at drying-off) is reported as 8,000 ×10^3/ml. The “milk somatic cell concentration (SCC) increased to” value ([1]; total dose 100 mg in 1 ml water suspended in 9 ml peanut oil (FIG. 1)) was “one million”, the “clinical symptoms (swelling, elevated body temperature, redness of udder, pain)” value ([1]; total dose 100 mg intramammary) was “no clinical symptoms” and the “milk yield per cow more than cows that received antibiotics” value [2] was “approximately 700 pounds”. For the same substance, the “Mean yearly milk yield” value [2] was “Mean 26029 pounds”, the “Mean yearly milk yield” value ([2]; listed as dextran) was 26,029 pounds and the “new infections (quarters infected during the dry period)” value [3] was 26 new infections quarters. For the same substance, the “old infections (quarters remaining infected after calving)” value [3] was 17 old infections quarters, the “new infections (quarters infected during the dry period)” value ([3]; listed as dextran) was 26 quarters and the “old infections (quarters remaining infected after calving)” value ([3]; listed as dextran) was 17 quarters. The “infected quarters at dry-off” value ([3]; group total) was 38 quarters infected, the “infected quarters at dry-off” value ([3]; group total, listed as dextran) was 38 quarters and the “total infections after calving” value ([3]; group total, old plus new) was 43 infections. For the same substance, the “net gain of intramammary infections” value ([3]; total after calving compared to infected quarters at dry-off) was 5 infections.
